Key:
[1] = test system: TRZAWR (Wheat, Winter, cv Riband); assay: Postemergence herbicidal evaluation; type: in vivo, Triticum aestivum; settings: postemergence
Summary of the method: (§1)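 ~2-wk seedlings; postemergence spray, 40 psi; vehicle 1:1 acetone:water + 0.5% Tween 20; rate ≈0.0156–0.500 kg/ha; greenhouse hold; scored 4–5 wk after treatment, 0–9 scale vs control; repeat tests averaged.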

[2] = test system: ECHCG (Barnyardgrass); assay: Postemergence herbicidal evaluation; type: in vivo, Echinochloa crus-galli; settings: postemergence
Summary of the method: as §1

[3] = test system: GLXMAW (Soybean, Williams); assay: Postemergence herbicidal evaluation; type: in vivo, Glycine max, (L.) Merr. cv Williams; settings: postemergence
Summary of the method: as §1

[4] = test system: CHEAL (Lambsquarters, Common); assay: Postemergence herbicidal evaluation; type: in vivo, Chenopodium album; settings: postemergence
Summary of the method: as §1

[5] = test system: ORYSAT (Rice, Tebonnet); assay: Preemergence herbicidal evaluation; type: in vivo, Oryza sativa, (L.) Tebonnet; settings: rated 4-5 weeks after treatment
Summary of the method: (§2)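 Greenhouse preemergence test: seed-soil mix sown on ~1 inch soil; aqueous acetone spray at equivalent of ~0.0156–0.500 kg/ha; greenhouse-held and watered; scored 0–9 visually at 4–5 weeks.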

[6] = test system: ZEAMX (Corn, Field); assay: Preemergence herbicidal evaluation; type: in vivo, Zea mays; settings: rated 4-5 weeks after treatment
Summary of the method: as §2

[7] = test system: IPOHE (Morningglory, Ivyleaf); assay: Preemergence herbicidal evaluation; type: in vivo, Ipomoea hederacea; settings: rated 4-5 weeks after treatment
Summary of the method: as §2

[8] = test system: IPOHE (Morningglory, Ivyleaf); assay: Postemergence herbicidal evaluation; type: in vivo, Ipomoea hederacea; settings: postemergence
Summary of the method: as §1

[9] = test system: MOOVA (Monochoria); assay: Preemergence weed control under flooded paddy conditions; type: in vivo, Monochoria vaginalis; settings: rated 3-4 weeks after treatment
Summary of the method: (§3)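 Herbicidal effect is scored visually on a 0-9 scale against an untreated control, three to four weeks after compounds are pipetted into the flood water (1.5 to 3 cm deep) over seeds planted in silt loam at 0.5 cm depth. Rates: about 0.0313 to 0.500 kg/ha.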

[10] = test system: ECHORC (Watergrass (Calif.)); assay: as above; type: in vivo, Echinochloa oryzoides; settings: rated 3-4 weeks after treatment
Summary of the method: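 Seeds or propagules sown in top 0.5 cm of silt loam soil, flooded 1.5 to 3 cm above surface throughout. Compound in 50/50 v/v aqueous/acetone pipetted into flood water at about 0.0313 to 0.500 kg/ha. Visual 0-9 rating versus control after three to four weeks in greenhouse.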

[11] = test system: CHEAL (Lambsquarters, Common); assay: Preemergence herbicidal evaluation; type: in vivo, Chenopodium album; settings: rated 4-5 weeks after treatment
Summary of the method: as §2

[12] = test system: SETVI (Foxtail, Green); assay: Preemergence herbicidal evaluation; type: in vivo, Setaria viridis; settings: rated 4-5 weeks after treatment
Summary of the method: as §2

[13] = test system: AMBEL (Ragweed, Common); assay: Postemergence herbicidal evaluation; type: in vivo, Ambrosia artemisifolia; settings: postemergence
Summary of the method: as §1

[14] = test system: ZEAMX (Corn, Field); assay: Postemergence herbicidal evaluation; type: in vivo, Zea mays; settings: postemergence
Summary of the method: as §1

[15] = test system: CYPSE (Flatsedge); assay: Preemergence weed control under flooded paddy conditions; type: in vivo, Cyperus serotinus; settings: rated 3-4 weeks after treatment
Summary of the method: as §3

[16] = test system: CASOB (Sicklepod); assay: Preemergence herbicidal evaluation; type: in vivo, Cassia obtusifolia; settings: rated 4-5 weeks after treatment
Summary of the method: as §2

[17] = test system: ORYSAT (Rice, Tebonnet); assay: Postemergence herbicidal evaluation; type: in vivo, Oryza sativa, (L.) Tebonnet; settings: postemergence
Summary of the method: as §1

Compound: CCOC(=O)CN1C(=O)C(CC(=O)O)SC1=Nc1cc(-n2nc(C)n(C(F)F)c2=O)c(F)cc1Cl (stereo not drawn) [Compound 112, 2-{{2-Chloro-5-[4-(difluoromethyl)-4,5-dihydro-3-methyl-5-oxo-1H-1,2,4-triazol-1-yl]-4-fluorophenyl}imino}-4-oxo-3,5-thiazolidinediacetic acid, 3-ethyl ester]
- herbicidal rating TRZAWR ([1]; rate 0.0158 kg/ha): 2.0
- herbicidal rating TRZAWR ([1]; rate 0.0315 kg/ha): 2.0
- herbicidal rating TRZAWR ([1]; rate 0.0630 kg/ha): 3.0
- herbicidal rating ECHCG ([2]; rate 0.0158 kg/ha): 2.0
- herbicidal rating ECHCG ([2]; rate 0.0315 kg/ha): 4.0
- herbicidal rating ECHCG ([2]; rate 0.0630 kg/ha): 4.0
- herbicidal rating GLXMAW ([3]; rate 0.0158 kg/ha): 5.5
- herbicidal rating GLXMAW ([3]; rate 0.0315 kg/ha): 5.0
- herbicidal rating GLXMAW ([3]; rate 0.0630 kg/ha): 6.0
- herbicidal rating CHEAL ([4]; rate 0.0158 kg/ha): 4.0
- herbicidal rating CHEAL ([4]; rate 0.0315 kg/ha): 9.0
- herbicidal rating CHEAL ([4]; rate 0.0630 kg/ha): 9.0
- Preemergence herbicidal rating ORYSAT ([5]; rate 0.0313 kg/ha): 0.0
- Preemergence herbicidal rating ORYSAT ([5]; rate 0.0625 kg/ha): 0.0
- Preemergence herbicidal rating ORYSAT ([5]; rate 0.1250 kg/ha): 0.0
- Preemergence herbicidal rating ORYSAT ([5]; rate 0.2500 kg/ha): 2.0
- Preemergence herbicidal rating ZEAMX ([6]; rate 0.0313 kg/ha): 0.0
- Preemergence herbicidal rating ZEAMX ([6]; rate 0.0625 kg/ha): 0.0
- Preemergence herbicidal rating ZEAMX ([6]; rate 0.1250 kg/ha): 1.0
- Preemergence herbicidal rating ZEAMX ([6]; rate 0.2500 kg/ha): 4.0
- Preemergence herbicidal rating IPOHE ([7]; rate 0.0313 kg/ha): 0.0
- Preemergence herbicidal rating IPOHE ([7]; rate 0.0625 kg/ha): 0.0
- Preemergence herbicidal rating IPOHE ([7]; rate 0.1250 kg/ha): 0.0
- Preemergence herbicidal rating IPOHE ([7]; rate 0.2500 kg/ha): 0.0
- herbicidal rating IPOHE ([8]; rate 0.0158 kg/ha): 9.0
- herbicidal rating IPOHE ([8]; rate 0.0315 kg/ha): 9.0
- herbicidal rating IPOHE ([8]; rate 0.0630 kg/ha): 9.0
- MOOVA herbicidal effect rating ([9]; 0.0313 kg/ha): 9.0
- MOOVA herbicidal effect rating ([9]; 0.0625 kg/ha): 9.0
- MOOVA herbicidal effect rating ([9]; 0.1250 kg/ha): 9.0
- MOOVA herbicidal effect rating ([9]; 0.2500 kg/ha): 9.0
- ECHORC herbicidal effect rating ([10]; 0.0313 kg/ha): 0.0
- ECHORC herbicidal effect rating ([10]; 0.0625 kg/ha): 3.0
- ECHORC herbicidal effect rating ([10]; 0.1250 kg/ha): 3.0
- ECHORC herbicidal effect rating ([10]; 0.2500 kg/ha): 3.0
- Preemergence herbicidal rating CHEAL ([11]; rate 0.2500 kg/ha): 1.0
- Preemergence herbicidal rating SETVI ([12]; rate 0.0313 kg/ha): 1.0
- Preemergence herbicidal rating SETVI ([12]; rate 0.0625 kg/ha): 0.0
- Preemergence herbicidal rating SETVI ([12]; rate 0.1250 kg/ha): 0.0
- Preemergence herbicidal rating SETVI ([12]; rate 0.2500 kg/ha): 0.0
- herbicidal rating AMBEL ([13]; rate 0.0158 kg/ha): 5.0
- herbicidal rating AMBEL ([13]; rate 0.0315 kg/ha): 9.0
- herbicidal rating AMBEL ([13]; rate 0.0630 kg/ha): 9.0
- herbicidal rating ZEAMX ([14]; rate 0.0158 kg/ha): 4.5
- herbicidal rating ZEAMX ([14]; rate 0.0315 kg/ha): 4.5
- herbicidal rating ZEAMX ([14]; rate 0.0630 kg/ha): 5.0
- CYPSE herbicidal effect rating ([15]; 0.0313 kg/ha): 0.0
- Preemergence herbicidal rating CASOB ([16]; rate 0.0313 kg/ha): 0.0
- Preemergence herbicidal rating CASOB ([16]; rate 0.0625 kg/ha): 0.0
- Preemergence herbicidal rating CASOB ([16]; rate 0.1250 kg/ha): 0.0
- Preemergence herbicidal rating CASOB ([16]; rate 0.2500 kg/ha): 0.0
- herbicidal rating ORYSAT ([17]; rate 0.0158 kg/ha): 2.0
- herbicidal rating ORYSAT ([17]; rate 0.0315 kg/ha): 2.0
- herbicidal rating ORYSAT ([17]; rate 0.0630 kg/ha): 2.5

Compound: CCOC(=O)CN1C(=O)C(Cc2ccccc2OC(C)C(=O)O)S/C1=N/c1cc(-n2c(=O)cc(C(F)(F)F)n(C)c2=O)c(F)cc1Cl (stereo not drawn) [Compound 114, 5-[o-(1-Carboxyethoxy)benzyl]-2-{{2-chloro-5-[3,6-dihydro-3-methyl-2,6-dioxo-4-(trifluoromethyl)-1(2H)-pyrimidinyl]-4-fluorophenyl}imino}-4-oxo-3-thiazolidineacetic acid, 3-ethyl ester]
- herbicidal rating TRZAWR ([1]; rate 0.0158 kg/ha): 2.0
- herbicidal rating TRZAWR ([1]; rate 0.0315 kg/ha): 3.0
- herbicidal rating TRZAWR ([1]; rate 0.0630 kg/ha): 4.0
- herbicidal rating ECHCG ([2]; rate 0.0158 kg/ha): 0.0
- herbicidal rating ECHCG ([2]; rate 0.0315 kg/ha): 1.0
- herbicidal rating ECHCG ([2]; rate 0.0630 kg/ha): 4.0
- herbicidal rating GLXMAW ([3]; rate 0.0158 kg/ha): 6.0
- herbicidal rating GLXMAW ([3]; rate 0.0315 kg/ha): 5.5
- herbicidal rating GLXMAW ([3]; rate 0.0630 kg/ha): 6.5
- herbicidal rating CHEAL ([4]; rate 0.0158 kg/ha): 7.0
- herbicidal rating CHEAL ([4]; rate 0.0315 kg/ha): 6.0
- herbicidal rating CHEAL ([4]; rate 0.0630 kg/ha): 9.0
- Preemergence herbicidal rating ORYSAT ([5]; rate 0.0156 kg/ha): 0.0
- Preemergence herbicidal rating ORYSAT ([5]; rate 0.0313 kg/ha): 0.0
- Preemergence herbicidal rating ORYSAT ([5]; rate 0.0625 kg/ha): 0.0
- Preemergence herbicidal rating ORYSAT ([5]; rate 0.1250 kg/ha): 2.0
- Preemergence herbicidal rating ORYSAT ([5]; rate 0.2500 kg/ha): 2.0
- Preemergence herbicidal rating ZEAMX ([6]; rate 0.0156 kg/ha): 0.0
- Preemergence herbicidal rating ZEAMX ([6]; rate 0.0313 kg/ha): 1.0
- Preemergence herbicidal rating ZEAMX ([6]; rate 0.0625 kg/ha): 1.0
- Preemergence herbicidal rating ZEAMX ([6]; rate 0.1250 kg/ha): 1.0
- Preemergence herbicidal rating ZEAMX ([6]; rate 0.2500 kg/ha): 2.0
- Preemergence herbicidal rating IPOHE ([7]; rate 0.0156 kg/ha): 0.0
- Preemergence herbicidal rating IPOHE ([7]; rate 0.0313 kg/ha): 0.0
- Preemergence herbicidal rating IPOHE ([7]; rate 0.0625 kg/ha): 0.0
- Preemergence herbicidal rating IPOHE ([7]; rate 0.1250 kg/ha): 9.0
- Preemergence herbicidal rating IPOHE ([7]; rate 0.2500 kg/ha): 7.0
- herbicidal rating IPOHE ([8]; rate 0.0158 kg/ha): 9.0
- herbicidal rating IPOHE ([8]; rate 0.0315 kg/ha): 9.0
- herbicidal rating IPOHE ([8]; rate 0.0630 kg/ha): 9.0
- MOOVA herbicidal effect rating ([9]; 0.0313 kg/ha): 9.0
- MOOVA herbicidal effect rating ([9]; 0.0625 kg/ha): 9.0
- MOOVA herbicidal effect rating ([9]; 0.1250 kg/ha): 9.0
- MOOVA herbicidal effect rating ([9]; 0.2500 kg/ha): 9.0
- ECHORC herbicidal effect rating ([10]; 0.0313 kg/ha): 6.0
- ECHORC herbicidal effect rating ([10]; 0.0625 kg/ha): 7.0
- ECHORC herbicidal effect rating ([10]; 0.1250 kg/ha): 7.0
- ECHORC herbicidal effect rating ([10]; 0.2500 kg/ha): 8.0
- Preemergence herbicidal rating CHEAL ([11]; rate 0.0156 kg/ha): 9.0
- Preemergence herbicidal rating CHEAL ([11]; rate 0.0313 kg/ha): 9.0
- Preemergence herbicidal rating CHEAL ([11]; rate 0.0625 kg/ha): 7.0
- Preemergence herbicidal rating CHEAL ([11]; rate 0.1250 kg/ha): 9.0
- Preemergence herbicidal rating CHEAL ([11]; rate 0.2500 kg/ha): 9.0
- Preemergence herbicidal rating SETVI ([12]; rate 0.0156 kg/ha): 0.0
- Preemergence herbicidal rating SETVI ([12]; rate 0.0313 kg/ha): 0.0
- Preemergence herbicidal rating SETVI ([12]; rate 0.0625 kg/ha): 2.0
- Preemergence herbicidal rating SETVI ([12]; rate 0.1250 kg/ha): 7.0
- Preemergence herbicidal rating SETVI ([12]; rate 0.2500 kg/ha): 9.0
- herbicidal rating AMBEL ([13]; rate 0.0158 kg/ha): 4.0
- herbicidal rating AMBEL ([13]; rate 0.0315 kg/ha): 9.0
- herbicidal rating AMBEL ([13]; rate 0.0630 kg/ha): 7.0
- herbicidal rating ZEAMX ([14]; rate 0.0158 kg/ha): 6.5
- herbicidal rating ZEAMX ([14]; rate 0.0315 kg/ha): 7.0
- herbicidal rating ZEAMX ([14]; rate 0.0630 kg/ha): 7.0
- CYPSE herbicidal effect rating ([15]; 0.0313 kg/ha): 3.5
- CYPSE herbicidal effect rating ([15]; 0.0625 kg/ha): 4.5
- CYPSE herbicidal effect rating ([15]; 0.1250 kg/ha): 3.5
- CYPSE herbicidal effect rating ([15]; 0.2500 kg/ha): 4.5
- Preemergence herbicidal rating CASOB ([16]; rate 0.0156 kg/ha): 0.0
- Preemergence herbicidal rating CASOB ([16]; rate 0.0313 kg/ha): 0.0
- Preemergence herbicidal rating CASOB ([16]; rate 0.0625 kg/ha): 1.0
- Preemergence herbicidal rating CASOB ([16]; rate 0.1250 kg/ha): 3.0
- Preemergence herbicidal rating CASOB ([16]; rate 0.2500 kg/ha): 9.0
- herbicidal rating ORYSAT ([17]; rate 0.0158 kg/ha): 1.5
- herbicidal rating ORYSAT ([17]; rate 0.0315 kg/ha): 2.0
- herbicidal rating ORYSAT ([17]; rate 0.0630 kg/ha): 3.0

— patent US20020137929A1, “1 - (3-heterocyclylphenyl) isothiourea, -isourea, -guanidine and -amidine herbicidal agents” (Intellectual Property Department, BASF Aktiengesellschaft, priority 1998, published 2002)
